{
  "source": "patent US12521387B2",
  "about": "“Prophylactic or therapeutic drug for neurodegenerative diseases” (Medilabo RFP, Inc., priority 2019, dated 2026)",
  "key": {"synaptophysin": {"system": "synaptophysin", "experiment": "Immunohistochemical staining and quantification of synaptophysin in hippocampus (SVP-38 antibody)", "assay_type": "in vivo, mouse", "details": "APPOSK mice; rifampicin 0.05 mg/day transnasal, every day for 1 month; listed as Reference Working Example 3", "from_the_text": "(§1) Each of Aβ oligomers (Aβ oligomers have been believed to cause the phosphorylation of tau and the decrease in synaptophysin), synaptophysin (a marker protein for a synapse) and phosphorylated tau was stained by an immunohistochemical staining method in accordance with the procedure described in Umeda et al. Brain 2016; 139: 1568-86. For the staining of the Aβ oligomers, 11A1 antibody (Immuno-Biological Laboratories Co, Ltd.) was used; for the staining of synaptophysin, SVP-38 antibody (Sigma) was used; and for the staining of phosphorylated tau, mouse monoclonal PHF-1 antibody (an anti-p-Ser396/404-tau antibody, provided by Peter Davies, Ph. d., Albert Einstein College of Medicine). After the staining, each of the Aβ oligomers, synaptophysin and phosphorylated tau was quantified using NIH image-J."}, "Aβ": {"molecular_target": "Aβ (Homo sapiens, UniProt P05067)", "experiment": "In vitro formation of oligomers of Aβ"}, "Aβ42": {"molecular_target": "T1, Aβ42 (Homo sapiens, UniProt P05067)", "T1 construct": "suppress the toxicity of Aβ42", "experiment": "Suppression of the toxicity of Aβ42", "details": "confirmed by the present inventors"}, "APPOSK mice [1]": {"system": "APPOSK mice", "experiment": "Morris water maze behavioral test (spatial reference memory, cognitive function) in Alzheimer's disease model mice", "assay_type": "in vivo, mouse", "details": "for Cognitive function (Morris water maze): transnasal", "quoted_text": "Eleven-month-old male APPOSK mice (Tomiyama et al. J Neurosci. 2010; 30: 4845-56) were provided. The body weight of each of the APPOSK mice was about 30 g. Sixty APPOSK mice were divided into five groups A to E each including 12 mice. Separately, 12 wild-type mice (non-Tg littermate) of the same month old were provided. The APPOSK mice were amyloid precursor protein (APP) transgenic mice (Alzheimer's disease models), and had accumulation of amyloid-β (Aβ) protein.\nFor oral administration, an oral sound for rodents was used; for transnasal administration, pipetman (white tip) was used; and for subcutaneous administration, an injection syringe was used. All of these administrations were carried out under non-anesthesia.\nThe behavioral test was carrying out by determining the spatial reference memory of each of the mice using a Morris water maze in accordance with the method described in Umeda et al. Brain 2016; 139: 1568-86.\nThirteen-month-age (13 mo) individuals of the APPOSK mice shown in Test Example 1 were used."}, "phosphorylated tau": {"system": "phosphorylated tau", "experiment": "Immunohistochemical staining and quantification of phosphorylated tau in hippocampus (PHF-1 antibody)", "assay_type": "in vivo, mouse", "details": "APPOSK mice; rifampicin 0.05 mg/day transnasal, every day for 1 month; listed as Reference Working Example 3", "from_the_text": "as §1"}, "[2]": {"system": "α-synuclein transgenic (αSyn-Tg) mice each having an A53T mutation", "experiment": "Morris water maze behavioral test (cognitive function) in synucleinopathy model mice", "assay_type": "in vivo, mouse", "details": "αSyn-Tg 6 mo mice (DLB model); rifampicin 0.1 mg/day transnasal, every day for 1 month; listed as Reference Working Example 5", "experimental": "As synucleinopathy models, α-synuclein transgenic (αSyn-Tg) mice each having an A53T mutation were purchased from Jackson Laboratories. […] Therefore, in this Test Example, αSyn-Tg 6 mo mice and αSyn-Tg 9 mo mice were used as the subjects of administration.\nThe motor function and the cognitive function of each of the model mice were confirmed by a motor function test and a cognitive function test as mentioned below. The motor function test was carried out using a rotarod. Each of the mice was placed on a rotor which could rotate at a speed of 5 rpm (5 rotations per minute), was then subjected to such a training that the mouse was allowed to walk on the rotor for 3 minutes, and was then placed on a rotor of which the speed of rotation could increase from 4 rpm to 40 rpm over 4 minutes, and the time (seconds) until the mouse fell off the rotor was measured (when the mouse was turned once while holding on to the rotor, it was deemed that the mouse fell off). The measurement was carried out twice per day, and an average value of the measurement values was determined. The cognitive function test was carried out in accordance with the method described in Umeda et al. Brain 2016; 139: 1568-86 by measuring the spatial reference memory of the mice using a Morris water maze (the cognitive function test in the below-mentioned examples was carried out in the same manner as in this Test Example). […]"}, "[3]": {"system": "Tauopathy model mice (Tau784)", "experiment": "Morris water maze behavioral test (cognitive function) in tauopathy model mice", "assay_type": "in vivo, mouse", "details": "Tau784 mice 14-15 mo, transnasal, every day for 1 month", "quoted_text": "Tauopathy model mice (Umeda T et al., Am. J. Pathol. 183, 211-225, 2013) were provided, 14- to 15-month-old individuals of the model mice were used as subjects of administration."}, "tau": {"system": "tau", "experiment": "In vitro formation of oligomers of tau"}, "APPOSK mice [4]": {"system": "APPOSK mice", "experiment": "Liver enzymes AST (GOT) and ALT (GPT) in serum (hepatic dysfunction)", "assay_type": "in vivo, mouse", "details": "for AST level (in words): transnasal", "quoted_text": "Blood was collected from each of the mice after the completion of the behavioral test, and then serum was separated from the blood to prepare a serum sample."}, "Aβ oligomers": {"molecular_target": "T2, Aβ oligomers (Homo sapiens, UniProt P05067, DEL693-693)", "T2 construct": "had accumulation of amyloid-β (Aβ) protein; from tissue; host or cells: brain (hippocampus) of APPOSK transgenic mice", "assay_type": "in vivo, mouse", "details": "APPOSK mice, transnasal, every day for 1 month", "from_the_text": "as §1"}, "[5]": {"system": "AD model mouse in which Aβ is accumulated", "experiment": "Oral administration to AD model mouse", "assay_type": "in vivo", "details": "orally administered"}, "[6]": {"system": "FTD model mouse in which tau is accumulated", "experiment": "Oral administration to FTD model mouse", "assay_type": "in vivo", "details": "orally administered"}, "α-synuclein": {"molecular_target": "α-synuclein (Homo sapiens, UniProt P37840)", "experiment": "In vitro formation of oligomers of α-synuclein"}, "[7]": {"system": "patients having mild to moderate Alzheimer's disease", "details": "119 patients, 52 weeks; 500 mg, increased by 500 mg every 13 weeks to 1000 mg twice per day; cited from earlier work"}, "[8]": {"system": "causative protein for a neurodegenerative disease", "experiment": "Suppression of the aggregation of a causative protein for a neurodegenerative disease", "details": "confirmed by the present inventors"}, "[9]": {"system": "mitogen (division promoting factor)-activated protein (MAP) kinase", "details": "differentiated or undifferentiated human neuroblast SH-SY5Y; cited from earlier work"}, "[10]": {"details": "APPOSK mice, serum, rifampicin 0.05 mg/day transnasal, every day for 1 month, Mean ± SEM, n = 11"}},
  "note": "Entries after “also recorded” stand apart in the source; their conditions may differ. Where two headings read alike, the source gives them in different places.",
  "data": [
    {"smiles": "CO[C@H]1/C=C/O[C@@]2(C)Oc3c(C)c(O)c4c(O)c(c(/C=N/N5CCN(C)CC5)c(O)c4c3C2=O)NC(=O)/C(C)=C\\C=C\\[C@H](C)[C@H](O)[C@@H](C)[C@@H](O)[C@@H](C)[C@H](OC(C)=O)[C@@H]1C", "note": "[rifampicin, 3-(4-methylpiperazinyliminomethyl)rifamycin SV]", "values": [
      {"measurement": "Synaptophysin recovery in the hippocampus (immunostaining)", "setting": "synaptophysin", "value": "the decreased synaptophysin was recovered; also recorded: the same level as that in the wild-type mice; also recorded: the effect was higher than that in the oral administration"},
      {"measurement": "Inhibition of in vitro formation of oligomers of Aβ", "setting": "Aβ", "value": "can inhibit the in vitro formation of oligomers"},
      {"measurement": "Effect to suppress the toxicity of Aβ42", "setting": "Aβ42", "value": "can completely suppress the toxicity of Aβ42"},
      {"measurement": "Cognitive function (Morris water maze)", "setting": "APPOSK mice [1]; APPOSK mice, rifampicin 0.02 mg/day alone, every day for 1 month", "value": "the cognitive function improving tendency was observed"},
      {"measurement": "Improvement of memory impairment (Morris water maze)", "setting": "APPOSK mice [1]; APPOSK mice, rifampicin 0.05 mg/day transnasal, every day for 1 month, listed as Reference Working Example 3", "value": "the improvement effect was at the same level as that in the wild-type mice; also recorded: the improvement effect was higher than that in the case of oral administration"},
      {"measurement": "Phosphorylated tau reduction in the hippocampus (immunostaining)", "setting": "phosphorylated tau", "value": "the amount of phosphorylated tau accumulated in the brain was decreased and high"},
      {"measurement": "Cognitive function / memory impairment (Morris water maze)", "setting": "[2]", "value": "the improvement of memory impairment was observed from day 1 after the administration; also recorded: the cognitive function was recovered to the same level as that in normal Non-Tg mice"},
      {"measurement": "Cognitive function (Morris water maze)", "setting": "[3]; rifampicin 0.02 mg/day alone", "value": "the cognitive function improving effect was developed slowly"},
      {"measurement": "Inhibition of in vitro formation of oligomers of tau", "setting": "tau", "value": "can inhibit the in vitro formation of oligomers"},
      {"measurement": "ALT", "setting": "APPOSK mice [4]; [10]", "value": "40 ± 10", "unit": "IU/L"},
      {"measurement": "AST", "setting": "APPOSK mice [4]; [10]", "value": "165 ± 32", "unit": "IU/L"},
      {"measurement": "AST level (in words)", "setting": "APPOSK mice [4]; APPOSK mice, rifampicin 0.02 mg/day alone, every day for 1 month, listed as Comparative Example 1", "value": "the increase in AST level, which indicated the occurrence of adverse side effects, was observed; also recorded: significantly reduced compared with the case of oral administration"},
      {"measurement": "Removal of accumulated Aβ oligomers (immunostaining)", "setting": "Aβ oligomers; rifampicin 0.02 mg/day alone", "value": "the effect to remove the accumulated Aβ oligomers was observed, but the level of the effect was smaller than that in Example 1"},
      {"measurement": "Cognitive function", "setting": "[5]", "value": "can recover the cognitive function of the mouse"},
      {"measurement": "Cognitive function", "setting": "[6]", "value": "can recover the cognitive function of the mouse"},
      {"measurement": "Inhibition of in vitro formation of oligomers of α-synuclein", "setting": "α-synuclein", "value": "can inhibit the in vitro formation of oligomers"}
    ]},
    {"smiles": "Oc1ccc(/C=C/c2cc(O)cc(O)c2)cc1", "note": "[resveratrol, 3,5,4′-trihydroxy-trans-stilbene]", "values": [
      {"measurement": "Effectiveness on Alzheimer's disease compared with placebo", "setting": "[7]", "value": "the effectiveness of the administration of resveratrol could not been confirmed"},
      {"measurement": "Effect to suppress the toxicity of Aβ42", "setting": "Aβ42", "value": "significantly weaker compared with rifampicin"},
      {"measurement": "Cognitive function (Morris water maze)", "setting": "APPOSK mice [1]; APPOSK mice 13 mo, resveratrol 0.02 mg/day, every day for 1 month (Test Example 6)", "value": "the cognitive function-improving effect was observed, although the effect was exerted slowly"},
      {"measurement": "Cognitive function (Morris water maze)", "setting": "APPOSK mice [1]; APPOSK mice 13 mo, resveratrol 0.1 mg/day, every day for 1 month (Test Example 6)", "value": "the improvement of cognitive function was observed to a level close to that observed in the wild-type mice"},
      {"measurement": "Cognitive function (Morris water maze)", "setting": "APPOSK mice [1]; APPOSK mice, resveratrol 0.02 mg/day alone, every day for 1 month (Test Example 3), listed as Reference Example 10", "value": "the cognitive function improving tendency was observed; also recorded: a slow cognitive function-improving effect on a neurodegenerative disease was observed"},
      {"measurement": "Cognitive function (Morris water maze)", "setting": "[3]; resveratrol 0.02 mg/day alone, listed as Reference Example 15", "value": "the cognitive function improving effect was developed slowly; also recorded: a slow cognitive function-improving effect on a neurodegenerative disease was observed"},
      {"measurement": "AST level", "setting": "APPOSK mice [4]; APPOSK mice (not shown), resveratrol 0.1 mg administered alone", "value": "about 86 IU/L"},
      {"measurement": "AST level / liver protection activity (in words)", "setting": "APPOSK mice [4]; APPOSK mice (not shown), resveratrol 0.1 mg alone, compared with Reference Example 9 (CMC)", "value": "the AST level was decreased and a positive liver protection activity was confirmed"},
      {"measurement": "AST level (in words)", "setting": "APPOSK mice [4]; APPOSK mice, resveratrol 0.02 mg/day alone, every day for 1 month, compared with Reference Example 9 (CMC)", "value": "AST was not reduced"},
      {"measurement": "Effect to suppress the aggregation of a causative protein for a neurodegenerative disease", "setting": "[8]", "value": "weak"},
      {"measurement": "Removal of accumulated Aβ oligomers (immunostaining)", "setting": "Aβ oligomers; resveratrol 0.02 mg/day alone, listed as Reference Example 10", "value": "the effect to remove the accumulated Aβ oligomers was observed, but the level of the effect was smaller than that in Example 1; also recorded: the accumulated Aβ oligomers removing effect was confirmed; also recorded: the significant removal of the accumulated oligomers was observed"},
      {"measurement": "Phosphorylation of MAP kinase", "setting": "[9]", "value": "induces the phosphorylation of mitogen (division promoting factor)-activated protein (MAP) kinase"}
    ]}
  ]
}
